Read-outs that look alike come from different tables or passages of the source.

Twelve molecules from patent US8987195B2 (priority 2012, dated 2015) can be followed below.

Test [1] concerns HCV genotype 1b replicon. Put plainly: HCV replicon assay, genotype 1b replicon EC50. The format is cell-based, Hepatitis C virus. As to conditions: HCV replicon, genotype 1b, read-out: EC50 [gt-1b]. A digest of the protocol:
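Potency comes from a four-parameter fit of signal as percent of DMSO control. Replicon-bearing cells were treated 24-48 hours with a compound dilution series in absence of G418, and replicon RNA was quantified normalized to cyclophilin A RNA, or luciferase read.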

Test [2] deals with HCV NS3/4A protease genotype 1b (Hepatitis C virus genotype 1b, UniProt P26663). Put plainly: HCV NS3/4A protease time-resolved fluorescence (TRF) assay, Ki against genotype 1b. The test is classed as biochemical. To be noted: IC50 [gt-1b], NS3/4A protease TRF assay, genotype 1b enzyme 0.2 nM. A digest of the protocol: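 First, protease (genotype 1b 0.2 nM, A156T 0.4 nM, genotype 3a 0.025 nM) is preincubated 30 min with inhibitor. Next, 25 nM TRF substrate starts the reaction, run 2.5 h at room temperature. Finally, europium fluorescence is read and Ki calculated from IC50.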

In general, EC50 refers to the concentration at which the effect is half-maximal. What is called IC50 is the concentration that inhibits the measured activity by half. Consider `Cc1nc2ccc(F)cc2c2c1O[C@]1(CC2)C[C@H]2C(=O)N[C@]3(C(=O)NS(=O)(=O)C4(C)CC4)C[C@H]3/C=C\CCCCC[C@H](NC(=O)OC(C)(C)C(F)(F)F)C(=O)N2C1` [Example 405, 1,1,1-trifluoro-2-methylpropan-2-yl [(2R,6S,12Z,13aS,14aR,16aS)-9′-fluoro-5′-methyl-14a-{[(1-methylcyclopropyl)sulfonyl]carbamoyl}-5,16-dioxo-1,1′,2′,5,6,7,8,9,10,11,13a,14,14a,15,16,16a-hexadecahydrospiro[cyclopropa[e]pyrrolo[1,2-a][1,4]diazacyclopentadecine-2,3′-pyrano[2,3-c]quinolin]-6-yl]carbamate], for which, in test [1] (Hepatitis C virus), the EC50 turned out to be 0.813 nM. Also, in test [2], 0.021 nM corresponded to half-maximal inhibition (IC50).
The corresponding values for `Cc1nc2ccc(F)cc2c2c1O[C@]1(CC2)C[C@H]2C(=O)N[C@]3(C(=O)NS(=O)(=O)C4(C)CC4)C[C@H]3/C=C\CCCCC[C@H](NC(=O)OCC(C)(C)C)C(=O)N2C1` [Example 406, 2,2-dimethylpropyl [(2R,6S,12Z,13aS,14aR,16aS)-9′-fluoro-5′-methyl-14a-{[(1-methylcyclopropyl)sulfonyl]carbamoyl}-5,16-dioxo-1,1′,2′,5,6,7,8,9,10,11,13a,14,14a,15,16,16a-hexadecahydrospiro[cyclopropa[e]pyrrolo[1,2-a][1,4]diazacyclopentadecine-2,3′-pyrano[2,3-c]quinolin]-6-yl]carbamate] are 1 nM and 0.013 nM.
As for `COc1ccc2nc(C)c3c(c2c1)CC[C@]1(C[C@H]2C(=O)N[C@]4(C(=O)NS(=O)(=O)C5(C)CC5)C[C@H]4/C=C\CCCCC[C@H](NC(=O)OC(C(C)C)C(F)(F)F)C(=O)N2C1)O3` (stereo partly drawn) [Example 407, 1,1,1-trifluoro-3-methylbutan-2-yl [(2R,6S,12Z,13aS,14aR,16aS)-9′-methoxy-5′-methyl-14a-{[(1-methylcyclopropyl)sulfonyl]carbamoyl}-5,16-dioxo-1,1′,2′,5,6,7,8,9,10,11,13a,14,14a,15,16,16a-hexadecahydrospiro[cyclopropa[e]pyrrolo[1,2-a][1,4]diazacyclopentadecine-2,3′-pyrano[2,3-c]quinolin]-6-yl]carbamate], the EC50 in test [1] (Hepatitis C virus, K+ salt) was determined as 1.5 nM. Besides, in test [2] (K+ salt), the IC50 is 0.019 nM.
`COc1ccc2nc(C)c3c(c2c1)CC[C@]1(C[C@H]2C(=O)N[C@]4(C(=O)NS(=O)(=O)C5(C)CC5)C[C@H]4/C=C\CCCCC[C@H](NC(=O)OC(C(C)C)C(F)(F)F)C(=O)N2C1)O3` (stereo partly drawn) [Example 408, 1,1,1-trifluoro-3-methylbutan-2-yl [(2R,6S,12Z,13aS,14aR,16aS)-9′-methoxy-5′-methyl-14a-{[(1-methylcyclopropyl)sulfonyl]carbamoyl}-5,16-dioxo-1,1′,2′,5,6,7,8,9,10,11,13a,14,14a,15,16,16a-hexadecahydrospiro[cyclopropa[e]pyrrolo[1,2-a][1,4]diazacyclopentadecine-2,3′-pyrano[2,3-c]quinolin]-6-yl]carbamate]: the EC50 in test [1] (K+ salt) was 1.23 nM. Also, the IC50 in test [2] (K+ salt) came to 0.023 nM.
For `COCCOc1ccc2nc(C)c3c(c2c1)CC[C@]1(C[C@H]2C(=O)N[C@]4(C(=O)NS(=O)(=O)C5(C)CC5)C[C@H]4/C=C\CCCCC[C@H](NC(=O)OC(C)(C)C)C(=O)N2C1)O3` [Example 409, tert-butyl [(2R,6S,12Z,13aS,14aR,16aS)-9′-(2-methoxyethoxy)-5′-methyl-14a-{[(1-methylcyclopropyl)sulfonyl]carbamoyl}-5,16-dioxo-1,1′,2′,5,6,7,8,9,10,11,13a,14,14a,15,16,16a-hexadecahydrospiro[cyclopropa[e]pyrrolo[1,2-a][1,4]diazacyclopentadecine-2,3′-pyrano[2,3-c]quinolin]-6-yl]carbamate], the EC50 in test [1] (Hepatitis C virus) was determined as 4.73 nM. The molecule further yielded an IC50 in test [2] of 0.02 nM.
On to `COCCOc1ccc2nc(C)c3c(c2c1)CC[C@]1(C[C@H]2C(=O)N[C@]4(C(=O)NS(=O)(=O)C5(C)CC5)C[C@H]4/C=C\CCCCC[C@H](NC(=O)OCC(C)(C)C)C(=O)N2C1)O3` [Example 410, 2,2-dimethylpropyl [(2R,6S,12Z,13aS,14aR,16aS)-9′-(2-methoxyethoxy)-5′-methyl-14a-{[(1-methylcyclopropyl)sulfonyl]carbamoyl}-5,16-dioxo-1,1′,2′,5,6,7,8,9,10,11,13a,14,14a,15,16,16a-hexadecahydrospiro[cyclopropa[e]pyrrolo[1,2-a][1,4]diazacyclopentadecine-2,3′-pyrano[2,3-c]quinolin]-6-yl]carbamate], for which the EC50 in test [1] (Hepatitis C virus) was determined as 3.1 nM. In test [2], this molecule displayed an IC50 of 0.011 nM.
The corresponding values for `COCCOc1ccc2nc(C)c3c(c2c1)CC[C@]1(C[C@H]2C(=O)N[C@]4(C(=O)NS(=O)(=O)C5(C)CC5)C[C@H]4/C=C\CCCCC[C@H](NC(=O)OCC(C)C)C(=O)N2C1)O3` [Example 411, 2-methylpropyl [(2R,6S,12Z,13aS,14aR,16aS)-9′-(2-methoxyethoxy)-5′-methyl-14a-{[(1-methylcyclopropyl)sulfonyl]carbamoyl}-5,16-dioxo-1,1′,2′,5,6,7,8,9,10,11,13a,14,14a,15,16,16a-hexadecahydrospiro[cyclopropa[e]pyrrolo[1,2-a][1,4]diazacyclopentadecine-2,3′-pyrano[2,3-c]quinolin]-6-yl]carbamate] are 5.77 nM and 0.064 nM.
Turning to `COc1ccc2nc(C3CC3)c3c(c2c1)CC[C@]1(C[C@H]2C(=O)N[C@]4(C(=O)NS(=O)(=O)C5(C)CC5)C[C@H]4/C=C\CCCCC[C@H](NC(=O)O[C@@H](C)C(C)C)C(=O)N2C1)O3` [Example 412, (2S)-3-methylbutan-2-yl [(2R,6S,12Z,13aS,14aR,16aS)-5′-cyclopropyl-9′-methoxy-14a-{[(1-methylcyclopropyl)sulfonyl]carbamoyl}-5,16-dioxo-1,1′,2′,5,6,7,8,9,10,11,13a,14,14a,15,16,16a-hexadecahydrospiro[cyclopropa[e]pyrrolo[1,2-a][1,4]diazacyclopentadecine-2,3′-pyrano[2,3-c]quinolin]-6-yl]carbamate], the EC50 in test [1] (Hepatitis C virus, K+ salt) came to 1.42 nM. Besides, the IC50 in test [2] (K+ salt) was found to be 0.038 nM.
As to `COc1ccc2nc(C3CC3)c3c(c2c1)CC[C@]1(C[C@H]2C(=O)N[C@]4(C(=O)NS(=O)(=O)C5(C)CC5)C[C@H]4/C=C\CCCCC[C@H](NC(=O)O[C@H](C)C(C)C)C(=O)N2C1)O3` [Example 413, (2R)-3-methylbutan-2-yl [(2R,6S,12Z,13aS,14aR,16aS)-5′-cyclopropyl-9′-methoxy-14a-{[(1-methylcyclopropyl)sulfonyl]carbamoyl}-5,16-dioxo-1,1′,2′,5,6,7,8,9,10,11,13a,14,14a,15,16,16a-hexadecahydrospiro[cyclopropa[e]pyrrolo[1,2-a][1,4]diazacyclopentadecine-2,3′-pyrano[2,3-c]quinolin]-6-yl]carbamate], the concentration giving a half-maximal response (EC50) in test [1] (Hepatitis C virus, K+ salt) is 2.53 nM. In addition, in test [2] (K+ salt), the IC50 is 0.021 nM.
Take `Cc1nc2ccccc2c2c1O[C@]1(CC2)C[C@H]2C(=O)N[C@]3(C(=O)NS(=O)(=O)C4(C)CC4)C[C@H]3/C=C\CCCCC[C@H](Nc3cc(C(F)(F)F)ccn3)C(=O)N2C1` [Example 414, (2R,6S,12Z,13aS,14aR,16aS)-5′-methyl-N-[(1-methylcyclopropyl)sulfonyl]-5,16-dioxo-6-{[4-(trifluoromethyl)pyridin-2-yl]amino}-1,1′,2′,6,7,8,9,10,11,13a,14,15,16,16a-tetradecahydrospiro[cyclopropa[e]pyrrolo[1,2-a][1,4]diazacyclopentadecine-2,3′-pyrano[2,3-c]quinoline]-14a(5H)-carboxamide]: in test [1] (Hepatitis C virus), the EC50 was 5.16 nM. The molecule also showed an IC50 in test [2] of 0.047 nM.
With `COc1cccc(N[C@H]2CCCCC/C=C\[C@@H]3C[C@@]3(C(=O)NS(=O)(=O)C3(C)CC3)NC(=O)[C@@H]3C[C@]4(CCc5c(c(C)nc6ccccc56)O4)CN3C2=O)n1` [Example 415, (2R,6S,12Z,13aS,14aR,16aS)-6-[(6-methoxypyridin-2-yl)amino]-5′-methyl-N-[(1-methylcyclopropyl)sulfonyl]-5,16-dioxo-1,1′,2′,6,7,8,9,10,11,13a,14,15,16,16a-tetradecahydrospiro[cyclopropa[e]pyrrolo[1,2-a][1,4]diazacyclopentadecine-2,3′-pyrano[2,3-c]quinoline]-14a(5H)-carboxamide], the EC50 in test [1] (Hepatitis C virus) stood at 16.3 nM. Besides, the IC50 in test [2] amounted to 0.118 nM.
Turning to `Cc1ccc2nc(C(F)(F)F)c3c(c2c1)CC[C@]1(C[C@H]2C(=O)N[C@]4(C(=O)NS(=O)(=O)C5(C)CC5)C[C@H]4/C=C\CCCCC[C@H](NC(=O)OCCN4CCCC4)C(=O)N2C1)O3` [Example 416, 2-(pyrrolidin-1-yl)ethyl [(2R,6S,12Z,13aS,14aR,16aS)-9′-methyl-14a-{[(1-methylcyclopropyl)sulfonyl]carbamoyl}-5,16-dioxo-5′-(trifluoromethyl)-1,1′,2′,5,6,7,8,9,10,11,13a,14,14a,15,16,16a-hexadecahydrospiro[cyclopropa[e]pyrrolo[1,2-a][1,4]diazacyclopentadecine-2,3′-pyrano[2,3-c]quinolin]-6-yl]carbamate], the EC50 in test [1] (Hepatitis C virus) stood at 272 nM. 0.164 nM corresponded to half-maximal inhibition in test [2] (IC50).
